# Assay results published in patent US20230085307A1, “PYRIDAZINONE COMPOUND AND HERBICIDE” (NISSAN CHEMICAL CORPORATION, priority 2019, published 2023).
# Columns and labels:
# [1] = tested on: barnyard grass; assay: Test Example 3: herbicidal effect by foliage application, Wagner pot (Table 18, symbol H); assay type: in vivo, barnyard grass (Echinochloa crus-galli); details: 320 g/ha
# Procedure, shortened: (§1)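 Plants were sown in alluvial soil held under 0.1–0.5 cm standing water and grown 14 days in a greenhouse at 25–30 °C. An emulsifiable formulation, water-diluted to the set dose, was then sprayed onto the foliage, and effects were scored three weeks later using previously defined criteria.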
# [2] = tested on: Chinese sprangletop; assay: Test Example 3: herbicidal effect by foliage application, Wagner pot (Table 18, symbol D); assay type: in vivo, chinese sprangletop (Leptochloa chinensis); details: 320 g/ha
# Procedure, shortened: as §1
# [3] = tested on: rice flat sedge; assay: Test Example 3: herbicidal effect by foliage application, Wagner pot (Table 18, symbol E); assay type: in vivo, rice flat sedge (Cyperus iria); details: 320 g/ha
# Procedure, shortened: as §1
# [4] = tested on: southern crabgrass; assay: Test Example 4: herbicidal effect by soil treatment (Table 19, symbol F); assay type: in vivo, southern crabgrass (Digitaria ciliaris); details: amount of applied herbicide 320 g/ha
# Procedure, shortened: (§2)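 Seeds were sown in sterilized diluvial soil and covered with about 1.5 cm of soil. An emulsion formulation diluted with water to a predetermined herbicide amount was sprayed evenly onto the soil surface. Plants grew in a greenhouse at 25° C. to 30° C., and the effect was scored three weeks after application using criteria from an earlier test.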
# [5] = tested on: barnyard grass; assay: Test Example 4: herbicidal effect by soil treatment (Table 19, symbol H); assay type: in vivo, barnyard grass (Echinochloa crus-galli); details: amount of applied herbicide 320 g/ha
# Procedure, shortened: as §2
# [6] = tested on: wild oat; assay: Test Example 4: herbicidal effect by soil treatment (Table 19, symbol I); assay type: in vivo, wild oat (Avena fatua); details: amount of applied herbicide 320 g/ha
# Procedure, shortened: as §2
# [7] = tested on: blackgrass; assay: Test Example 4: herbicidal effect by soil treatment (Table 19, symbol J); assay type: in vivo, blackgrass (Alopecurus myosuroides); details: amount of applied herbicide 320 g/ha
# Procedure, shortened: as §2
# [8] = tested on: Italian ryegrass; assay: Test Example 4: herbicidal effect by soil treatment (Table 19, symbol K); assay type: in vivo, Italian ryegrass (Lolium multiflorum); details: amount of applied herbicide 320 g/ha
# Procedure, shortened: as §2
# [9] = tested on: windgrass; assay: Test Example 4: herbicidal effect by soil treatment (Table 19, symbol L); assay type: in vivo, windgrass (Apera spica-venti); details: amount of applied herbicide 320 g/ha
# Procedure, shortened: as §2
# [10] = tested on: velvetleaf; assay: Test Example 4: herbicidal effect by soil treatment (Table 19, symbol M); assay type: in vivo, velvetleaf (Abutilon theophrasti); details: amount of applied herbicide 320 g/ha
# Procedure, shortened: as §2
# [11] = tested on: redroot pigweed; assay: Test Example 4: herbicidal effect by soil treatment (Table 19, symbol N); assay type: in vivo, redroot pigweed (Amaranthus retroflexus); details: amount of applied herbicide 320 g/ha
# Procedure, shortened: as §2
# [12] = tested on: lambsquarters; assay: Test Example 4: herbicidal effect by soil treatment (Table 19, symbol O); assay type: in vivo, lambsquarters (Chenopodium album); details: amount of applied herbicide 320 g/ha
# Procedure, shortened: as §2
# [13] = tested on: chickweed; assay: Test Example 4: herbicidal effect by soil treatment (Table 19, symbol P); assay type: in vivo, common chickweed (Stellaria media); details: amount of applied herbicide 320 g/ha
# Procedure, shortened: as §2
# [14] = tested on: persian speedwell; assay: Test Example 4: herbicidal effect by soil treatment (Table 19, symbol R); assay type: in vivo, Persian speedwell (Veronica persica); details: amount of applied herbicide 320 g/ha
# Procedure, shortened: as §2
# [15] = tested on: southern crabgrass; assay: Test Example 5: herbicidal effect by foliage application, plastic box (Table 20, symbol F); assay type: in vivo, southern crabgrass (Digitaria ciliaris); details: foliage application, 320 g/ha, three weeks after application
# Procedure, shortened: (§3)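 Plants sown in sterilized diluvial soil and grown 14 days in a greenhouse at 25° C to 30° C, then sprayed on the foliage with the compound's emulsion diluted in water to a predetermined herbicide amount. Injury to weeds and crops scored three weeks after application on a visual rating scale.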
# [16] = tested on: green foxtail; assay: Test Example 5: herbicidal effect by foliage application, plastic box (Table 20, symbol G); assay type: in vivo, green foxtail (Setaria viridis); details: foliage application, 320 g/ha, three weeks after application
# Procedure, shortened: as §3
# [17] = tested on: barnyard grass; assay: Test Example 5: herbicidal effect by foliage application, plastic box (Table 20, symbol H); assay type: in vivo, barnyard grass (Echinochloa crus-galli); details: foliage application, 320 g/ha, three weeks after application
# Procedure, shortened: as §3
# [18] = tested on: wild oat; assay: Test Example 5: herbicidal effect by foliage application, plastic box (Table 20, symbol I); assay type: in vivo, wild oat (Avena fatua); details: foliage application, 320 g/ha, three weeks after application
# Procedure, shortened: as §3
# [19] = tested on: blackgrass; assay: Test Example 5: herbicidal effect by foliage application, plastic box (Table 20, symbol J); assay type: in vivo, blackgrass (Alopecurus myosuroides); details: foliage application, 320 g/ha, three weeks after application
# Procedure, shortened: as §3
# [20] = tested on: Italian ryegrass; assay: Test Example 5: herbicidal effect by foliage application, plastic box (Table 20, symbol K); assay type: in vivo, Italian ryegrass (Lolium multiflorum); details: foliage application, 320 g/ha, three weeks after application
# Procedure, shortened: as §3
# [21] = tested on: windgrass; assay: Test Example 5: herbicidal effect by foliage application, plastic box (Table 20, symbol L); assay type: in vivo, windgrass (Apera spica-venti); details: foliage application, 320 g/ha, three weeks after application
# Procedure, shortened: as §3
# [22] = tested on: velvetleaf; assay: Test Example 5: herbicidal effect by foliage application, plastic box (Table 20, symbol M); assay type: in vivo, velvetleaf (Abutilon theophrasti); details: foliage application, 320 g/ha, three weeks after application
# Procedure, shortened: as §3
# [23] = tested on: redroot pigweed; assay: Test Example 5: herbicidal effect by foliage application, plastic box (Table 20, symbol N); assay type: in vivo, redroot pigweed (Amaranthus retroflexus); details: foliage application, 320 g/ha, three weeks after application
# Procedure, shortened: as §3
# [24] = tested on: lambsquarters; assay: Test Example 5: herbicidal effect by foliage application, plastic box (Table 20, symbol O); assay type: in vivo, lambsquarters (Chenopodium album); details: foliage application, 320 g/ha, three weeks after application
# Procedure, shortened: as §3
# [25] = tested on: chickweed; assay: Test Example 5: herbicidal effect by foliage application, plastic box (Table 20, symbol P); assay type: in vivo, common chickweed (Stellaria media); details: foliage application, 320 g/ha, three weeks after application
# Procedure, shortened: as §3
# [26] = tested on: persian speedwell; assay: Test Example 5: herbicidal effect by foliage application, plastic box (Table 20, symbol R); assay type: in vivo, Persian speedwell (Veronica persica); details: foliage application, 320 g/ha, three weeks after application
# Procedure, shortened: as §3
compound,measurement,setting,value
CSc1ccccc1-c1sc2ccccc2c1-c1c(O)c(C)nn(C)c1=O [1-034],"herbicidal effect on H (barnyard grass), rating 0-5",[1],1 (Herbicidal rate of 5% or more and less than 20%)
same,"herbicidal effect on D (Chinese sprangletop), rating 0-5",[2],0 (Herbicidal rate of 5% or less (almost no effect))
same,"herbicidal effect on E (rice flat sedge), rating 0-5",[3],3 (Herbicidal rate of 40% or more and less than 70%)
same,"herbicidal effect rating, F: southern crabgrass",[4],0 (Herbicidal rate of 5% or less (almost no effect))
same,"herbicidal effect rating, H: barnyard grass",[5],0 (Herbicidal rate of 5% or less (almost no effect))
same,"herbicidal effect rating, I: wild oat",[6],0 (Herbicidal rate of 5% or less (almost no effect))
same,"herbicidal effect rating, J: blackgrass",[7],0 (Herbicidal rate of 5% or less (almost no effect))
same,"herbicidal effect rating, K: Italian ryegrass",[8],0 (Herbicidal rate of 5% or less (almost no effect))
same,"herbicidal effect rating, L: windgrass",[9],0 (Herbicidal rate of 5% or less (almost no effect))
same,"herbicidal effect rating, M: velvetleaf",[10],0 (Herbicidal rate of 5% or less (almost no effect))
same,"herbicidal effect rating, N: redroot pigweed",[11],0 (Herbicidal rate of 5% or less (almost no effect))
same,"herbicidal effect rating, O: lambsquarters",[12],0 (Herbicidal rate of 5% or less (almost no effect))
same,"herbicidal effect rating, P: chickweed",[13],3 (Herbicidal rate of 40% or more and less than 70%)
same,"herbicidal effect rating, R: persian speedwell",[14],0 (Herbicidal rate of 5% or less (almost no effect))
same,"herbicidal effect grade, F: southern crabgrass",[15],0 (Herbicidal rate of 5% or less (almost no effect))
same,"herbicidal effect grade, G: green foxtail",[16],0 (Herbicidal rate of 5% or less (almost no effect))
same,"herbicidal effect grade, H: barnyard grass",[17],0 (Herbicidal rate of 5% or less (almost no effect))
same,"herbicidal effect grade, I: wild oat",[18],2 (Herbicidal rate of 20% or more and less than 40%)
same,"herbicidal effect grade, J: blackgrass",[19],0 (Herbicidal rate of 5% or less (almost no effect))
same,"herbicidal effect grade, K: Italian ryegrass",[20],0 (Herbicidal rate of 5% or less (almost no effect))
same,"herbicidal effect grade, L: windgrass",[21],0 (Herbicidal rate of 5% or less (almost no effect))
same,"herbicidal effect grade, M: velvetleaf",[22],0 (Herbicidal rate of 5% or less (almost no effect))
same,"herbicidal effect grade, N: redroot pigweed",[23],0 (Herbicidal rate of 5% or less (almost no effect))
same,"herbicidal effect grade, O: lambsquarters",[24],0 (Herbicidal rate of 5% or less (almost no effect))
same,"herbicidal effect grade, P: chickweed",[25],4 (Herbicidal rate of 70% or more and less than 90%)
same,"herbicidal effect grade, R: persian speedwell",[26],1 (Herbicidal rate of 5% or more and less than 20%)
